Results from patent US20070142437A1, “CHEMICAL COMPOUNDS” (priority 2005, published 2007).

Tested on: HUVEC cells
Assay: Human Umbilical Vein Endothelial Cell (HUVEC) proliferation assay (BrdU incorporation)
Assay type: cell-based
Conditions: growth stimulated with VEGF, 72 hrs, read-out: Inhibition of HUVEC proliferation IC50
Procedure: Human Umbilical Vein Endothelial Cell (HUVEC) Proliferation Assay (BrdU Incorporation) Materials
HUVEC cells and EGM-MV (Endothelial cell growth medium—microvascular) were purchased from Clonetics (San Diego, Calif.). VEGF and bFGF were purchased from R&D Systems (Minneapolis, Minn.). Anti-BrdU antibody was obtained from Chemicon International (Temecula, Calif.).
HUVECs were routinely maintained in EGM-MV medium and were used within passage 7. HUVECs were plated at a density of 2500 cells/well in M199 medium containing 5% FBS (Hyclone) in type I collagen coated plate (Becton Dickinson). The plate was incubated at 37° C. overnight. The medium was removed by aspiration, and test compounds were added to each well in a volume of 0.1 ml/well in serum-free M199 medium. Compound concentrations ranged from 1.5 nM to 30 micromolar. The plate was incubated for 30 min at 37° C. Another 0.1 ml of serum-free M199 medium containing BSA and VEGF (or bFGF) was added to give a final concentration of 0.1% BSA and 10 ng/ml VEGF (0.3 ng/ml bFGF). The plate was incubated at 37° C. for 72 hrs. BrdU was added to each well after the first 48 hrs to give a concentration of 10 micromolar. The colorimetric ELISA assay was performed according to manufacturer's (Roche Molecular Sciences) instructions, with detection by absorbance reading at 450 nm. Results were plotted as concentration of test compound vs. absorbance to give an IC50 value for inhibition of BrdU incorporation.

SMILES: CNS(=O)(=O)Cc1ccc(Nc2ncc(-c3ccccc3)o2)cc1 [Example 51, N-methyl-1-{4-[(5-phenyl-1,3-oxazol-2-yl)amino]phenyl}methanesulfonamide]
- IC50: < 1000 nM

SMILES: CCS(=O)(=O)c1ccc(OC)c(Nc2ncc(-c3ccccc3)o2)c1 [Example 56, N-[5-(ethylsulfonyl)-2-methoxyphenyl]-5-phenyl-1,3-oxazol-2-amine]
- IC50: < 500 nM

SMILES: COc1ccc(S(=O)(=O)N(C)C)cc1Nc1ncc(-c2ccc(F)cc2)o1 [Example 70, 3-{[5-(4-fluorophenyl)-1,3-oxazol-2-yl]amino}-4-methoxy-N,N-dimethylbenzenesulfonamide]
- IC50: < 500 nM

SMILES: COc1cc(Nc2ncc(-c3ccccc3)o2)cc(OC)c1OC [Example 74, 5-phenyl-N-(3,4,5-trimethoxyphenyl)-1,3-oxazol-2-amine]
- IC50: < 500 nM

SMILES: COc1ccc(CS(C)(=O)=O)cc1Nc1ncc(-c2ccc(F)cc2)o1 [Example 82, 5-(4-fluorophenyl)-N-{2-methoxy-5-[(methylsulfonyl)methyl]phenyl}-1,3-oxazol-2-amine]
- IC50: < 1000 nM

SMILES: COc1ccc(S(=O)(=O)NCc2ccccn2)cc1Nc1ncc(-c2ccc(F)cc2)o1 [Example 86, 3-{[5-(4-fluorophenyl)-1,3-oxazol-2-yl]amino}-4-methoxy-N-(pyridin-2-ylmethyl)benzenesulfonamide]
- IC50: < 500 nM

SMILES: COc1ccc(S(N)(=O)=O)cc1Nc1ncc(-c2ccc(F)cc2)o1 [Example 89, 3-{[5-(4-fluorophenyl)-1,3-oxazol-2-yl]amino}-4-methoxybenzenesulfonamide]
- IC50: < 1000 nM

SMILES: CCC(CC)S(=O)(=O)c1ccc(OC)c(Nc2ncc(-c3ccc(F)cc3)o2)c1 [Example 90, N-{5-[(1-ethylpropyl)sulfonyl]-2-methoxyphenyl}-5-(4-fluorophenyl)-1,3-oxazol-2-amine]
- IC50: < 1000 nM

SMILES: COc1ccc(S(=O)(=O)CC(C)C)cc1Nc1ncc(-c2ccc(F)cc2)o1 [Example 93, 5-(4-fluorophenyl)-N-[5-(isobutylsulfonyl)-2-methoxyphenyl]-1,3-oxazol-2-amine]
- IC50: < 1000 nM

SMILES: COc1ccc(S(=O)(=O)CC2CCCO2)cc1Nc1ncc(-c2ccc(F)cc2)o1 (stereo not shown) [Example 94, 5-(4-fluorophenyl)-N-{2-methoxy-5-[(tetrahydrofuran-2-ylmethyl)sulfonyl]phenyl}-1,3-oxazol-2-amine]
- IC50: < 1000 nM

SMILES: COc1ccc(S(=O)(=O)C2CCOC2)cc1Nc1ncc(-c2ccc(F)cc2)o1 (stereo not shown) [Example 95, 5-(4-fluorophenyl)-N-[2-methoxy-5-(tetrahydrofuran-3-ylsulfonyl)phenyl]-1,3-oxazol-2-amine]
- IC50: < 1000 nM

SMILES: COc1ccc(S(=O)(=O)C(C)C)cc1Nc1ncc(-c2ccc(F)cc2)o1 [Example 97, 5-(4-fluorophenyl)-N-[5-(isopropylsulfonyl)-2-methoxyphenyl]-1,3-oxazol-2-amine]
- IC50: < 500 nM

SMILES: CCS(=O)(=O)c1ccc(OC)c(Nc2ncc(-c3cccc(Br)c3)o2)c1 [Example 100, 5-(3-bromophenyl)-N-[5-(ethylsulfonyl)-2-methoxyphenyl]-1,3-oxazol-2-amine]
- IC50: < 1000 nM

SMILES: CCS(=O)(=O)c1ccc(OC)c(Nc2ncc(-c3ccc(F)cc3)o2)c1 [Example 109, N-[5-(ethylsulfonyl)-2-methoxyphenyl]-5-(4-fluorophenyl)-1,3-oxazol-2-amine]
- IC50: < 500 nM

SMILES: CCS(=O)(=O)c1ccc(OC)c(Nc2ncc(-c3ccc(F)c(F)c3)o2)c1 [Example 110, 5-(3,4-difluorophenyl)-N-[5-(ethylsulfonyl)-2-methoxyphenyl]-1,3-oxazol-2-amine]
- IC50: < 1000 nM

SMILES: COc1cc(Nc2ncc(-c3ccc(F)cc3)o2)cc(OC)c1OC [Example 116, 5-(4-fluorophenyl)-N-(3,4,5-trimethoxyphenyl)-1,3-oxazol-2-amine]
- IC50: < 1000 nM

SMILES: COc1ccc(S(=O)(=O)NCc2ccncc2)cc1Nc1ncc(-c2ccc(F)cc2)o1 [Example 122, 3-{[5-(4-fluorophenyl)-1,3-oxazol-2-yl]amino}-4-methoxy-N-(pyridin-4-ylmethyl)benzenesulfonamide]
- IC50: < 1000 nM

SMILES: COc1ccc(S(=O)(=O)NC(C)C)cc1Nc1ncc(-c2ccc(F)cc2)o1 [Example 123, 3-{[5-(4-fluorophenyl)-1,3-oxazol-2-yl]amino}-N-isopropyl-4-methoxybenzenesulfonamide]
- IC50: < 1000 nM

SMILES: COc1ccc(S(=O)(=O)NCC2CCCO2)cc1Nc1ncc(-c2ccc(F)cc2)o1 (stereo not shown) [Example 124, 3-{[5-(4-fluorophenyl)-1,3-oxazol-2-yl]amino}-4-methoxy-N-(tetrahydrofuran-2-ylmethyl)benzenesulfonamide]
- IC50: < 1000 nM

SMILES: COCCCNS(=O)(=O)c1ccc(OC)c(Nc2ncc(-c3ccc(F)cc3)o2)c1 [Example 129, 3-{[5-(4-fluorophenyl)-1,3-oxazol-2-yl]amino}-4-methoxy-N-(3-methoxypropyl)benzenesulfonamide]
- IC50: < 1000 nM

SMILES: CNS(=O)(=O)c1ccc(OC)c(Nc2ncc(-c3ccc(F)cc3)o2)c1 [Example 130, 3-{[5-(4-fluorophenyl)-1,3-oxazol-2-yl]amino}-4-methoxy-N-methylbenzenesulfonamide]
- IC50: < 1000 nM

SMILES: CCS(=O)(=O)c1ccc(OC)c(Nc2ncc(-c3ccc(Cl)cc3)o2)c1 [Example 132, 5-(4-chlorophenyl)-N-[5-(ethylsulfonyl)-2-methoxyphenyl]-1,3-oxazol-2-amine]
- IC50: < 1000 nM

SMILES: CCS(=O)(=O)c1ccc(OC)c(Nc2ncc(-c3ccc(C#N)cc3)o2)c1 [Example 133, 4-(2-{[5-(ethylsulfonyl)-2-methoxyphenyl]amino}-1,3-oxazol-5-yl)benzonitrile]
- IC50: < 500 nM

SMILES: CCS(=O)(=O)c1ccc(OC)c(Nc2ncc(-c3ccc(C(N)=O)cc3)o2)c1 [Example 134]
- IC50: < 500 nM

SMILES: CCS(=O)(=O)c1ccc(OC)c(Nc2ncc(-c3cccc(Cl)c3)o2)c1 [Example 137, 5-(3-chlorophenyl)-N-[5-(ethylsulfonyl)-2-methoxyphenyl]-1,3-oxazol-2-amine]
- IC50: < 1000 nM

SMILES: CCS(=O)(=O)c1ccc(OC)c(Nc2ncc(-c3cccc(F)c3)o2)c1 [Example 141, N-[5-(ethylsulfonyl)-2-methoxyphenyl]-5-(3-fluorophenyl)-1,3-oxazol-2-amine]
- IC50: < 500 nM

SMILES: CCS(=O)(=O)c1ccc(OC)c(Nc2ncc(-c3ccc4c(c3)OCCO4)o2)c1 [Example 148, 5-(Z,3-dihydro-1,4-benzodioxin-6-yl)-N-[5-(ethylsulfonyl)-2-methoxyphenyl]-1,3-oxazol-2-amine]
- IC50: < 1000 nM

SMILES: CCS(=O)(=O)c1ccc(OC)c(Nc2ncc(-c3ccc4c(c3)OCCCO4)o2)c1 [Example 153, 5-(3,4-dihydro-2H-1,5-benzodioxepin-7-yl)-N-[5-(ethylsulfonyl)-2-methoxyphenyl]-1,3-oxazol-2-amine]
- IC50: < 1000 nM

SMILES: CCS(=O)(=O)c1ccc(OC)c(Nc2ncc(-c3cccc(O)c3)o2)c1 [Example 158]
- IC50: < 1000 nM

SMILES: CCS(=O)(=O)c1ccc(OC)c(Nc2ncc(-c3cccc(OCc4cccc(OC)c4OC)c3)o2)c1 [Example 165, 5-{3-[(2,3-dimethoxybenzyl)oxy]phenyl}-N-[5-(ethylsulfonyl)-2-methoxyphenyl]-1,3-oxazol-2-amine]
- IC50: < 1000 nM

SMILES: CCS(=O)(=O)c1ccc(OC)c(Nc2ncc(-c3cccc(OC(C)c4ccncc4)c3)o2)c1 (stereo not shown) [Example 166, N-[5-(ethylsulfonyl)-2-methoxyphenyl]-5-[3-(1-pyridin-4-ylethoxy)phenyl]-1,3-oxazol-2-amine]
- IC50: < 1000 nM
